This assay deals with T1, hGIP-R (Homo sapiens, UniProt P48546).
T1 construct: expressed in transfected cells; host or cells: HEK-293 clonal cell lines
T1 sequence (P48546 22-466): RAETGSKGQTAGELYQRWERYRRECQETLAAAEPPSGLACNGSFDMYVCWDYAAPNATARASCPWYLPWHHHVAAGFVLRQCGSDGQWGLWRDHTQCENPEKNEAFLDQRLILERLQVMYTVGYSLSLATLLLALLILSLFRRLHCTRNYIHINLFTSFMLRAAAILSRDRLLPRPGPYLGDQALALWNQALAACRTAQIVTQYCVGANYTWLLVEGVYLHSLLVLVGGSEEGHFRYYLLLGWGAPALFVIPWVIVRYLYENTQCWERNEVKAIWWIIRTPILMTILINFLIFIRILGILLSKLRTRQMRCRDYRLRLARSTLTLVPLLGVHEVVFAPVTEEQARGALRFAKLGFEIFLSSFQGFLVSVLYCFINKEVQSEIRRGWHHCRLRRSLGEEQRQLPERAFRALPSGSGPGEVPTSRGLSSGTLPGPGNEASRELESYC
As to the kind of experiment: Functional hGIP-R Assay (cAMP formation, HTRF). Conditions: for Emax: cAMP efficacy, percent of maximal response to GIP(1-42)OH, 37° C., 0.1% bovine casein, arithmetic mean ± SEM; for EC50: cAMP potency, HEK-293 cells expressing hGIP-R, incubated at 37° C. in the presence of 0.1% bovine casein, geometric mean, read-out: Human GIP-R EC50, nM (SEM, n). The assay is classed as cell-based. Put shortly:
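HEK-293 cells expressing hGIP-R were given a 20-point compound series in DMEM with 0.1% casein, 250 μM IBMX, 1% DMSO, 30 min at 37 °C. cAMP was read by HTRF against a standard curve, expressed as % of human GIP (1-42) OH maximum; EC50 and Emax came from four-parameter fits.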

In the case of `Cn1cc2cc(-c3ccc([C@H]4C[C@@H]4C(=O)N[C@H](Cc4cnc5ncccn45)C(=O)NC(C)(C)Cn4nc(C(F)(F)F)cc4-c4cn[nH]n4)cc3)cnc2n1` [Example 69, (1S,2S)-N-((R)-1-((1-(5-(2H-1,2,3-Triazol-4-yl)-3-(trifluoromethyl)-1H-pyrazol-1-yl)-2-methylpropan-2-yl)amino)-3-(imidazo[1,2-a]pyrimidin-3-yl)-1-oxopropan-2-yl)-2-(4-(2-methyl-2H-pyrazolo [3,4-b]pyridin-5-yl)phenyl)cyclopropane-1-carboxamide], the Emax worked out at 87.8 ± 8.06% and the 50% effective concentration (EC50) turned out to be 34 nM.
For `CN(C(=O)[C@H]1C[C@@H]1c1ccc(-c2cnc3nn(C)cc3c2)cc1)[C@H](Cc1cnn(C)c1)C(=O)NC(C)(C)Cn1nc(C(F)(F)F)cc1-c1cn[nH]n1` [Example 70, (1S,2S)-N-((R)-1-((1-(5-(2H-1,2,3-Triazol-4-yl)-3-(trifluoromethyl)-1H-pyrazol-1-yl)-2-methylpropan-2-yl)amino)-3-(1-methyl-1H-pyrazol-4-yl)-1-oxopropan-2-yl)-N-methyl-2-(4-(2-methyl-2H-pyrazolo [3,4-b]pyridin-5-yl)phenyl)cyclopropane-1-carboxamide] the same measures were 102 ± 2.2% and 158 nM.
For `CC(C)(Cn1cc(C(F)(F)F)cn1)NC(=O)[C@@H](Cc1cnc2ncccn12)NC(=O)[C@H]1C[C@@H]1c1ccc(-c2cnc3nc(C4CC(F)(F)C4)cn3c2)cc1` [Example 74, (1S,2S)-2-(4-(2-(3,3-Difluorocyclobutyl)imidazo[1,2-a]pyrimidin-6-yl)phenyl)-N-((R)-3-(imidazo[1,2-a]pyrimidin-3-yl)-1-((2-methyl-1-(4-(trifluoromethyl)-1H-pyrazol-1-yl)propan-2-yl)amino)-1-oxopropan-2-yl)cyclopropane-1-carboxamide] the same measures were 102 ± 3.65% and 13.6 nM.
As to `COCc1cn2cc(-c3ccc([C@H]4C[C@@H]4C(=O)N[C@H](Cc4cnc5ncccn45)C(=O)NC(C)(C)Cn4cc(C(F)(F)F)cn4)cc3)cnc2n1` [Example 75, (1S,2S)-N-((R)-3-(Imidazo[1,2-a]pyrimidin-3-yl)-1-((2-methyl-1-(4-(trifluoromethyl)-1H-pyrazol-1-yl)propan-2-yl)amino)-1-oxopropan-2-yl)-2-(4-(2-(methoxymethyl)imidazo[1,2-a]pyrimidin-6-yl)phenyl)cyclopropane-1-carboxamide], the Emax is 119 ± 6.64% and the EC50 came out at 65 nM.
For `CC(C)(Cn1cc(C(F)(F)F)cn1)NC(=O)[C@@H](Cc1cnc2ncccn12)NC(=O)[C@H]1C[C@@H]1c1ccc(-c2cnc3nc(C4CC4)cn3c2)cc1` [Example 76, (1S,2S)-2-(4-(2-Cyclopropylimidazo[1,2-a]pyrimidin-6-yl)phenyl)-N-((R)-3-(imidazo[1,2-a]pyrimidin-3-yl)-1-((2-methyl-1-(4-(trifluoromethyl)-1H-pyrazol-1-yl)propan-2-yl)amino)-1-oxopropan-2-yl)cyclopropane-1-carboxamide] the same measures were 97.2 ± 7.63% and 16.2 nM.
For `CC(C)(Cn1cc(C(F)(F)F)cn1)NC(=O)[C@@H](Cc1cnc2ncccn12)NC(=O)[C@H]1C[C@@H]1c1ccc(-c2cnc3nn(CC4CCC4)cc3c2)cc1` [Example 77, (1S,2S)-2-(4-(2-(Cyclobutylmethyl)-2H-pyrazolo[3,4-b]pyridin-5-yl)phenyl)-N-((R)-3-(imidazo[1,2-a]pyrimidin-3-yl)-1-((2-methyl-1-(4-(trifluoromethyl)-1H-pyrazol-1-yl)propan-2-yl)amino)-1-oxopropan-2-yl)cyclopropane-1-carboxamide], the maximum response (Emax) was 103 ± 12% and the EC50 was 88.2 nM.
For `CC(C)(Cn1cc(C(F)(F)F)cn1)NC(=O)[C@@H](Cc1cnc2ncccn12)NC(=O)[C@H]1C[C@@H]1c1ccc(-c2cnc3nc(C4CCC4)cn3c2)cc1` [Example 78, (1S,2S)-2-(4-(2-Cyclobutylimidazo[1,2-a]pyrimidin-6-yl)phenyl)-N-((R)-3-(imidazo[1,2-a]pyrimidin-3-yl)-1-((2-methyl-1-(4-(trifluoromethyl)-1H-pyrazol-1-yl)propan-2-yl)amino)-1-oxopropan-2-yl)cyclopropane-1-carboxamide], the maximum response (Emax) amounted to 113 ± 18.8% and the EC50 stood at 20.3 nM.
For `CC(C)(Cn1cc(C(F)(F)F)cn1)NC(=O)[C@@H](Cc1cnc2ncccn12)NC(=O)[C@H]1C[C@@H]1c1ccc(-c2cnc3nc(C(F)F)cn3c2)cc1` [Example 79, (1S,2S)-2-(4-(2-(Difluoromethyl)imidazo[1,2-a]pyrimidin-6-yl)phenyl)-N-((R)-3-(imidazo[1,2-a]pyrimidin-3-yl)-1-((2-methyl-1-(4-(trifluoromethyl)-1H-pyrazol-1-yl)propan-2-yl)amino)-1-oxopropan-2-yl)cyclopropane-1-carboxamide], the maximal effect (Emax) worked out at 104 ± 5% and the EC50 stood at 25.1 nM.
As for `CC(C)(Cn1cc(C(F)(F)F)cn1)NC(=O)[C@@H](Cc1cnc2ncccn12)NC(=O)[C@H]1C[C@@H]1c1ccc(-c2cnc3nc(C(C)(F)F)cn3c2)cc1` [Example 80, (1S,2S)-2-(4-(2-(1,1-Difluoroethyl)imidazo[1,2-a]pyrimidin-6-yl)phenyl)-N-((R)-3-(imidazo[1,2-a]pyrimidin-3-yl)-1-((2-methyl-1-(4-(trifluoromethyl)-1H-pyrazol-1-yl)propan-2-yl)amino)-1-oxopropan-2-yl)cyclopropane-1-carboxamide], the Emax was determined as 109 ± 4.1% and the 50% effective concentration (EC50) was found to be 28.6 nM.
Take `CC(C)(Cn1cc(C(F)(F)F)cn1)NC(=O)[C@@H](Cc1cnc2ncccn12)NC(=O)[C@H]1C[C@@H]1c1ccc(-c2cnc3nc(C4(C)CC4)cn3c2)cc1` [Example 81, (1S,2S)-N-((R)-3-(Imidazo[1,2-a]pyrimidin-3-yl)-1-((2-methyl-1-(4-(trifluoromethyl)-1H-pyrazol-1-yl)propan-2-yl)amino)-1-oxopropan-2-yl)-2-(4-(2-(1-methylcyclopropyl)imidazo[1,2-a]pyrimidin-6-yl)phenyl)cyclopropane-1-carboxamide]: the Emax is 117 ± 0.667% and the EC50 is 33.1 nM.
For `CCc1cn2cc(-c3ccc([C@H]4C[C@@H]4C(=O)N[C@H](Cc4cnc5ncccn45)C(=O)NC(C)(C)Cn4cc(C(F)(F)F)cn4)cc3)cnc2n1` [Example 82, (1S,2S)-2-(4-(2-Ethylimidazo[1,2-a]pyrimidin-6-yl)phenyl)-N-((R)-3-(imidazo[1,2-a]pyrimidin-3-yl)-1-((2-methyl-1-(4-(trifluoromethyl)-1H-pyrazol-1-yl)propan-2-yl)amino)-1-oxopropan-2-yl)cyclopropane-1-carboxamide], the Emax worked out at 106 ± 2.58% and the EC50 came to 36.4 nM.
Take `Cc1cn2cc(-c3ccc([C@H]4C[C@@H]4C(=O)N[C@H](Cc4cnc5ncccn45)C(=O)NC(C)(C)Cn4cc(C(F)(F)F)cn4)cc3)cnc2n1` [Example 83, (1S,2S)-N-((R)-3-(Imidazo[1,2-a]pyrimidin-3-yl)-1-((2-methyl-1-(4-(trifluoromethyl)-1H-pyrazol-1-yl)propan-2-yl)amino)-1-oxopropan-2-yl)-2-(4-(2-methylimidazo[1,2-a]pyrimidin-6-yl)phenyl)cyclopropane-1-carboxamide]: the Emax worked out at 95.4 ± 7.12% and the EC50 was 44.1 nM.

The values are drawn from patent US20260108546A1 (ELI LILLY AND COMPANY, priority 2024, published 2026).
